Like-named read-outs stand apart in the source and are kept apart here.
System: GenL
Assay type: biochemical, Micromonospora echinospora

| Km (SAM as methyl donor, integrated Michaelis-Menten fit) [µM] | Compound | Km [µM] |
| --- | --- | --- |
| – | CN[C@@H]1[C@@H](O)[C@@H](O[C@@H]2[C@@H](O)[C@H](O[C@H]3O[C@H](CN)CC[C@H]3N)[C@@H](N)C[C@H]2N)OC[C@]1(C)O [C1a] | 347 ± 86 |
| 77.8 ± 8 | CN[C@@H]1[C@@H](O)[C@@H](O[C@@H]2[C@@H](O)[C@H](O[C@H]3O[C@H]([C@@H](C)N)CC[C@H]3N)[C@@H](N)C[C@H]2N)OC[C@]1(C)O [C2] | – |

Source: publication PMC5819394 (Proceedings of the National Academy of Sciences of the …, 2018)
